From patent publication US20110195911A1, “SYNTHETIC ANALOGS OF THE JUXTAMEMBRANE DOMAIN OF IGF1R AND USES THEREOF” (THE UNITED STATES OF AMERICA,AS REPRESENTED BY THE …, priority 2008, published 2011) come the findings set out here.

The term GI50 denotes the concentration at which growth is held to half of that of the control. Usually TGI stands for the concentration at which net growth stops.

Where a SMILES comes first, the peptide text is derived from it. The star is where a group is joined. Palmitoyl = CCCCCCCCCCCCCCCC(=O)*

This assay deals with MCF-7 breast cancer cells. Nature of the assay: MTT cell toxicity assay in MCF-7 breast cancer cells. It counts as cell-based. The conditions noted are these: MCF-7 cells, MTT; for GI50 / TGI: final 0.5% FBS, two days with compound; for TGI: concentration of total growth inhibition (cytostatic); for growth inhibition / potency in MCF-7 cells (in words): comparison with related peptides. As to the method:
Cell Toxicity Assays: MCF-7 (breast cancer), T47D (breast cancer), Colo 205 (colon cancer), JM-1 (rat hepatoma), Sk Me1-2 (melanoma), PLC (human hepatoma), and HepG2 (human hepatoma) cells were obtained from American Type Cell Culture Collection. MCF-7 cells were grown in RPMI medium supplemented with 10% Fetal Bovine Serum. The rest of the cell lines were grown in DMEM medium supplemented with 10% Fetal Bovine Serum.
MTT 43-(4,5-Dimethylthiazol-2-yl)-2,5-diphenyltetrazolium) cell assay was performed using MCF-7 breast cancer cells. For the assay, cells were seeded into 96 well plates in medium containing 1% Fetal Bovine Serum and 100 μL of a cell suspension containing 5000 cells per well. Wells containing medium-only, and wells containing untreated cells, served as controls.
Seeded cells were allowed to attach and grow in the wells for 24 hours. A 5 mM stock solution of each peptide was made by dissolving approximately 1 mg of peptide in appropriate amount of DMSO. 2 mL dilutions were used to make 0.2 μM, 1.0 μM, 5.0 μM, and 10.0 μM concentration solutions of the compounds in serum-free medium. 100 μl, of the resulting 2× solutions were added to the corresponding wells to provide a final FBS concentration of 0.5% and 0.1 μM, 0.5 μM, 2.5 μM, and 5.0 μM dilutions of inhibitors. The cells were incubated with test compounds for two days. The control wells were given 100 μL of medium to ensure maximum similarity to the test wells so that all of the wells had 200 μL of medium during the growth period. An individual plate was made for Time Zero, to which the dye was added at the time of addition of compounds.
An alternative potency assay was used to test compounds in MCF-7 (breast cancer), T47D (breast cancer), Colo 205 (colon cancer), JM-1 (rat hepatoma), Sk MeI-2 (melanoma), PLC (human hepatoma), and HepG2 (human hepatoma) cells. Cells were suspended at a concentration of approximately 5000 cells per 100 μL of suspension in a 5% FBS RPMI medium. The cells were seeded into 96-count wells and incubated over night. After one day's incubation, the 5% FBS medium was aspirated and replaced with 100 μL of no serum RPMI medium containing 1 mg Bovine Serum Albumin (BSA) per 1 mL RPMI. Various concentrations of the test compounds were prepared by dilution in no-serum medium containing 1 mg BSA/mL. 75 μL of the test compound solutions were added to the wells, and the cells were allowed to incubate for 15-20 minutes, after which time 25 μL of human recombinant IGF-1 (Peprotech) solution was added to the wells to attain final concentrations of 10 ng IGF-1/mL medium. The control wells were given 175 μL of no-serum medium in addition to 25 μL of IGF-1 solution. An individual plate was made for time zero, in which the medium was also aspirated and replaced with 175 μL of no-serum medium and 25 μL of IGF-1. 15 μL of MTT dye was added and let incubate for 4 hours, after which time a stop stop solubilization solution was added. The stop solution lysed the cells and released the dye reduced by the remaining living cells. Absorbance of the wells at 544 nm was determined by a FLUOstar/POLARstar Galaxy (BMG Lab Technologies GmbH) microplate reader. The activity was calculated from the data using the formula: 100×[(T−T0)/(C−T0)] for T>T0 and 100×[(T−T0)/T0] for T<T0, wherein T0 corresponds to cell density at the time of drug addition, “T” is the optical density of the test well after a 48-h period of exposure to test drug, and “C” is the control optical density. The GI50 measures the growth inhibitory power of the test agent, and is defined as the concentration of test drug where 100×(T−T0)/(C−T0)=50. The TGI is the concentration of test drug where 100×(T−T0)/(C−T0)=0. Thus, the TGI signifies a cytostatic effect.
(In general: Formazan colour is commonly taken as a measure of viable cells.)

For the molecule `CCCCCCCCCCCCCCCC(=O)N[C@@H](CCCNC(=N)N)C(=O)N[C@@H](CCC(N)=O)C(=O)N1CCC[C@H]1C(=O)N[C@@H](CC(=O)O)C(=O)NCC(=O)N1CCC[C@H]1C(=O)N[C@@H](CC(C)C)C(=O)NCC(=O)N1CCC[C@H]1C(=O)N[C@@H](CC(C)C)C(=O)N[C@@H](Cc1ccc(O)cc1)C(N)=O` [IR-2, Pal-RQPDGPLGPLY-NH2] (Palmitoyl-RQPDGPLGPLY-NH2), the 50% growth inhibitory concentration (GI50) is 60 ± 1 nM, the total growth inhibition concentration (TGI) turned out to be 0.4 ± 0.05 µM and the “growth inhibition / potency in MCF-7 cells (in words)” value is “inhibited growth”.

Regarding `CCCCCCCCCCCCCCCC(=O)N[C@@H](Cc1c[nH]cn1)C(=O)N[C@@H](CCCNC(=N)N)C(=O)N[C@@H](CCCCN)C(=O)N[C@@H](CCCNC(=N)N)C(=O)N[C@@H](CC(N)=O)C(=O)N[C@@H](CC(N)=O)C(=O)N[C@@H](CO)C(=O)N[C@@H](CCCNC(=N)N)C(=O)N[C@@H](CC(C)C)C(=O)NCC(=O)N[C@@H](CC(N)=O)C(=O)NCC(N)=O` [Peptide 1, Pal-HRKRNNSRLGNG-NH2] (Palmitoyl-HRKRNNSRLGNG-NH2), the 50% growth inhibitory concentration (GI50) was 1800 ± 50 nM and the TGI is above 5 µM.

On to `CCCCCCCCCCCCCCCC(=O)N[C@@H](Cc1c[nH]cn1)C(=O)N[C@@H](CCCNC(=N)N)C(=O)N[C@@H](CCCCN)C(=O)N[C@@H](CCCNC(=N)N)C(=O)N[C@@H](CC(N)=O)C(=O)N[C@@H](CC(N)=O)C(=O)N[C@@H](CO)C(=O)N[C@@H](CCCNC(=N)N)C(=O)N[C@@H](CC(C)C)C(=O)NCC(N)=O` [Peptide 2, Pal-HRKRNNSRLG-NH2] (Palmitoyl-HRKRNNSRLG-NH2), for which the GI50 worked out at 1300 ± 50 nM and the total growth inhibition concentration (TGI) is above 5 µM.

For the molecule `CCCCCCCCCCCCCCCC(=O)N[C@@H](Cc1c[nH]cn1)C(=O)N[C@@H](CCCNC(=N)N)C(=O)N[C@@H](CCCCN)C(=O)N[C@@H](CCCNC(=N)N)C(=O)N[C@@H](CC(N)=O)C(=O)N[C@@H](CC(N)=O)C(=O)N[C@@H](CO)C(=O)N[C@@H](CCCNC(=N)N)C(=O)N[C@@H](CC(C)C)C(=O)NCC(=O)N[C@@H](CC(N)=O)C(=O)NCC(=O)N[C@H](C(=O)N[C@@H](CC(C)C)C(=O)N[C@@H](Cc1ccc(O)cc1)C(=O)N[C@@H](C)C(=O)N[C@@H](CO)C(=O)N[C@H](C(=O)N[C@@H](CC(N)=O)C(N)=O)C(C)C)C(C)C` [Peptide 3, Pal-HRKRNNSRLGNGVLYASVN-NH2] (Palmitoyl-HRKRNNSRLGNGVLYASVN-NH2), the “cell killing activity (in words)” value is “exhibited cell killing activity” and the TGI stood at 1.55 ± 0.1 µM.

As to `CCCCCCCCCCCCCCCC(=O)N[C@@H](Cc1c[nH]cn1)C(=O)N[C@@H](CCCNC(=N)N)C(=O)N[C@@H](CCCCN)C(=O)N[C@@H](CCCNC(=N)N)C(=O)N[C@@H](CC(N)=O)C(=O)N[C@@H](CC(N)=O)C(=O)N[C@@H](CO)C(=O)N[C@@H](CCCNC(=N)N)C(=O)N[C@@H](CC(C)C)C(=O)NCC(=O)N[C@@H](CC(N)=O)C(=O)NCC(=O)N[C@H](C(=O)N[C@@H](CC(C)C)C(=O)N[C@@H](Cc1ccc(O)cc1)C(=O)N[C@@H](C)C(=O)N[C@@H](CO)C(=O)N[C@H](C(=O)N[C@@H](CC(N)=O)C(=O)N1CCC[C@H]1C(=O)N[C@@H](CCC(=O)O)C(=O)N[C@@H](Cc1ccc(O)cc1)C(=O)N[C@@H](Cc1ccccc1)C(=O)N[C@@H](CO)C(=O)N[C@@H](C)C(=O)N[C@@H](C)C(N)=O)C(C)C)C(C)C` [Peptide 4] (Palmitoyl-HRKRNNSRLGNGVLYASVNPEYFSAA-NH2), the 50% growth inhibitory concentration (GI50) was determined as 1000 ± 50 nM and the total growth inhibition concentration (TGI) was above 5 µM.

For `CCCCCCCCCCCCCCCC(=O)N[C@@H](Cc1c[nH]cn1)C(=O)N[C@@H](CCCNC(=N)N)C(=O)N[C@@H](CCCCN)C(=O)N[C@@H](CCCNC(=N)N)C(=O)N[C@@H](CC(N)=O)C(=O)N[C@@H](CC(N)=O)C(=O)N[C@@H](CO)C(=O)N[C@@H](CCCNC(=N)N)C(=O)N[C@@H](CC(C)C)C(=O)NCC(=O)N[C@@H](CC(N)=O)C(=O)NCC(=O)N[C@H](C(=O)N[C@@H](CC(C)C)C(=O)N[C@@H](Cc1ccc(O)cc1)C(=O)N[C@@H](C)C(=O)N[C@@H](CO)C(=O)N[C@H](C(N)=O)C(C)C)C(C)C` [Peptide 5, Pal-HRKRNNSRLGNGVLYASV-NH2] (Palmitoyl-HRKRNNSRLGNGVLYASV-NH2), the GI50 was 450 ± 50 nM, the concentration for total growth inhibition (TGI) came to 1.45 ± 0.3 µM and the “growth inhibition / potency in MCF-7 cells (in words)” value is recorded as “increased the potency”.

Consider `CCCCCCCCCCCCCCCC(=O)N[C@H](C(=O)N[C@@H](Cc1c[nH]cn1)C(=O)N[C@@H](CCCNC(=N)N)C(=O)N[C@@H](CCCCN)C(=O)N[C@@H](CCCNC(=N)N)C(=O)N[C@@H](CC(N)=O)C(=O)N[C@@H](CC(N)=O)C(=O)N[C@@H](CO)C(=O)N[C@@H](CCCNC(=N)N)C(=O)N[C@@H](CC(C)C)C(=O)NCC(=O)N[C@@H](CC(N)=O)C(=O)NCC(=O)N[C@H](C(=O)N[C@@H](CC(C)C)C(=O)N[C@@H](Cc1ccc(O)cc1)C(=O)N[C@@H](C)C(=O)N[C@@H](CO)C(=O)N[C@H](C(N)=O)C(C)C)C(C)C)C(C)C` [Peptide 6, Pal-VHRKRNNSRLGNGVLYASV-NH2] (Palmitoyl-VHRKRNNSRLGNGVLYASV-NH2), for which the 50% growth inhibitory concentration (GI50) is 250 ± 30 nM and the TGI came to 1.05 ± 0.1 µM.

Take `CCCCCCCCCCCCCCCC(=O)N[C@@H](Cc1c[nH]cn1)C(=O)N[C@@H](CCCNC(=N)N)C(=O)N[C@@H](CCCCN)C(=O)N[C@@H](CCCNC(=N)N)C(=O)N[C@@H](CC(N)=O)C(=O)N[C@@H](CC(N)=O)C(=O)N[C@@H](CO)C(=O)N[C@@H](CCCNC(=N)N)C(=O)N[C@@H](CC(C)C)C(=O)NCC(=O)N[C@@H](CC(N)=O)C(=O)NCC(=O)N[C@H](C(=O)N[C@@H](CC(C)C)C(=O)N[C@@H](Cc1ccc(O)cc1)C(=O)N[C@@H](C)C(=O)N[C@@H](CO)C(N)=O)C(C)C` [Peptide 7, Pal-HRKRNNSRLGNGVLYAS-NH2] (Palmitoyl-HRKRNNSRLGNGVLYAS-NH2): the GI50 was determined as 1450 ± 100 nM and the TGI is 4.1 ± 0.3 µM.

For `CCCCCCCCCCCCCCCC(=O)N[C@@H](Cc1c[nH]cn1)C(=O)N[C@@H](CCCNC(=N)N)C(=O)N[C@@H](CCCCN)C(=O)N[C@@H](CCCNC(=N)N)C(=O)N[C@@H](CC(N)=O)C(=O)N[C@@H](CC(N)=O)C(=O)N[C@@H](CO)C(=O)N[C@@H](CCCNC(=N)N)C(=O)N[C@@H](CC(C)C)C(=O)NCC(=O)N[C@@H](CC(N)=O)C(=O)NCC(=O)N[C@H](C(=O)N[C@@H](CC(C)C)C(=O)N[C@@H](Cc1ccc(O)cc1)C(=O)N[C@@H](C)C(N)=O)C(C)C` [Peptide 8, Pal-HRKRNNSRLGNGVLYA-NH2] (Palmitoyl-HRKRNNSRLGNGVLYA-NH2), the GI50 was 1400 ± 100 nM and the TGI was above 5 µM.

As for `CCCCCCCCCCCCCCCC(=O)N[C@@H](Cc1c[nH]cn1)C(=O)N[C@@H](CCCNC(=N)N)C(=O)N[C@@H](CCCCN)C(=O)N[C@@H](CCCNC(=N)N)C(=O)N[C@@H](CC(N)=O)C(=O)N[C@@H](CC(N)=O)C(=O)N[C@@H](CO)C(=O)N[C@@H](CCCNC(=N)N)C(=O)N[C@@H](CC(C)C)C(=O)NCC(=O)N[C@@H](CC(N)=O)C(=O)NCC(=O)N[C@H](C(=O)N[C@@H](CC(C)C)C(N)=O)C(C)C` [Peptide 10, Pal-HRKRNNSRLGNGVL-NH2] (Palmitoyl-HRKRNNSRLGNGVL-NH2), the 50% growth inhibitory concentration (GI50) amounted to 1800 ± 100 nM and the total growth inhibition concentration (TGI) is above 5 µM.

Take `CCCCCCCCCCCCCCCC(=O)N[C@@H](Cc1c[nH]cn1)C(=O)N[C@@H](CCCNC(=N)N)C(=O)N[C@@H](CCCCN)C(=O)N[C@@H](CCCNC(=N)N)C(=O)N[C@@H](CC(N)=O)C(=O)N[C@@H](CC(N)=O)C(=O)N[C@@H](CO)C(=O)N[C@@H](CCCNC(=N)N)C(=O)N[C@@H](CC(C)C)C(=O)NCC(=O)N[C@@H](CC(N)=O)C(=O)NCC(=O)N[C@H](C(N)=O)C(C)C` [Peptide 11, Pal-HRKRNNSRLGNGV-NH2] (Palmitoyl-HRKRNNSRLGNGV-NH2): the GI50 amounted to 2500 ± 100 nM and the TGI was above 5 µM.
